Here are results for 14 compounds from patent US12685735B2 (Foghorn Therapeutics Inc., priority 2020, dated 2026).

The target in experiment [1] is BRM (Homo sapiens, UniProt P51531). Description: ATPase catalytic activity assay of BRM (ADP-Glo). The settings on record: for IC50: read-out: BRM IC50 (μM)*. In kind it is biochemical. The method, boiled down:
(§1)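 Measurement is luminescence, reflecting ADP produced by ATPase turnover. The two-step ADP-Glo detection consists of ATP depletion for 40 min and ADP-to-ATP conversion with luciferase for 60 min, both at room temperature.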
(ADP-Glo first removes unused ATP, then detects ADP through luciferase.)

The target of experiment [2] is BRG-1 (Homo sapiens, UniProt P51532). Nature of the experiment: ATPase catalytic activity assay of BRG-1 (ADP-Glo). In kind it is biochemical. The conditions noted are these: ATPase catalytic activity, ADP-Glo; for IC50: read-out: BRG1 IC50 (μM)*; for Emax: read-out: BRG1 Max % Inhibition. A digest of the protocol:
as §1

BRG-1, sequence (P51532 whole entry): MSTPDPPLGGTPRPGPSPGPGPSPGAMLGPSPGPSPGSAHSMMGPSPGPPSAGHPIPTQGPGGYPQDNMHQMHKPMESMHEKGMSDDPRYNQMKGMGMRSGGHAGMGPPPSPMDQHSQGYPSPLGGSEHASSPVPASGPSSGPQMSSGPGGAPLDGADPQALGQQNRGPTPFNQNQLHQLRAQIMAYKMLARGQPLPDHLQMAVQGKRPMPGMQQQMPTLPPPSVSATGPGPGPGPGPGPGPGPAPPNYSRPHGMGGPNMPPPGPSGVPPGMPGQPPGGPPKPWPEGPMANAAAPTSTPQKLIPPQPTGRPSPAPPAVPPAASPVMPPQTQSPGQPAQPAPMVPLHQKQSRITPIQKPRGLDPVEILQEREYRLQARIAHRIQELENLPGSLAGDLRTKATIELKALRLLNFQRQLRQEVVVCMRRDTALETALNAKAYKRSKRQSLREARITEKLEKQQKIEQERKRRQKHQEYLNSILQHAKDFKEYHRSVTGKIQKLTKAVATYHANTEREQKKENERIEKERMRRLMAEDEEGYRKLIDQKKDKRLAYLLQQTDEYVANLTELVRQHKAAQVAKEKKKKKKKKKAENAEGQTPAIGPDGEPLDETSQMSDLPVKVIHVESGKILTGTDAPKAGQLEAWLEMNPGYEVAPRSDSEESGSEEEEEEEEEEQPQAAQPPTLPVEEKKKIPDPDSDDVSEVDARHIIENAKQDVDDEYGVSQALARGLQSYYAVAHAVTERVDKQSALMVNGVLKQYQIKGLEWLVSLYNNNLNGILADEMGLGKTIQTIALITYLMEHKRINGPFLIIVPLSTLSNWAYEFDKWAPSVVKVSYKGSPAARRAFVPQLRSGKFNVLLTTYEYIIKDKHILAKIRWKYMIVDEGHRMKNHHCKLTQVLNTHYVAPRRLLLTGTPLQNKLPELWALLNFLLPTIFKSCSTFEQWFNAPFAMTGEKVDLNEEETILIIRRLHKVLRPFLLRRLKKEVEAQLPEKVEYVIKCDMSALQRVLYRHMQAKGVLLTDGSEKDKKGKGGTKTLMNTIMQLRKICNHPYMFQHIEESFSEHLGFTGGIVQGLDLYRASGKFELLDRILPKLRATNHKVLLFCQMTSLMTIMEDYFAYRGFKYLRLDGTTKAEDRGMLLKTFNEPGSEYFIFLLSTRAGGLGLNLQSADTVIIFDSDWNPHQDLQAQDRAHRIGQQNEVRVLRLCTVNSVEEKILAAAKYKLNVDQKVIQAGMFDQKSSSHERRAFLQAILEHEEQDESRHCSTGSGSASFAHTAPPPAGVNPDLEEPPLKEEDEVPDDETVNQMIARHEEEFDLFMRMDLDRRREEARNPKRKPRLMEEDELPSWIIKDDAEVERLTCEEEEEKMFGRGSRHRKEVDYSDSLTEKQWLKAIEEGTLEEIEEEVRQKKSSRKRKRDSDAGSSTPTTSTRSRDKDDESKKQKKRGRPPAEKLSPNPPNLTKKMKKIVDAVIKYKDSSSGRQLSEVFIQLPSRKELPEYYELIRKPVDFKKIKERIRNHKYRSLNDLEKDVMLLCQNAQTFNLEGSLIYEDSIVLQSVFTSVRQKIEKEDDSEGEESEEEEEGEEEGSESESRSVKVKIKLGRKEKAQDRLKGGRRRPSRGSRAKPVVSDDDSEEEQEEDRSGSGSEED
BRM, sequence (P51531 whole entry): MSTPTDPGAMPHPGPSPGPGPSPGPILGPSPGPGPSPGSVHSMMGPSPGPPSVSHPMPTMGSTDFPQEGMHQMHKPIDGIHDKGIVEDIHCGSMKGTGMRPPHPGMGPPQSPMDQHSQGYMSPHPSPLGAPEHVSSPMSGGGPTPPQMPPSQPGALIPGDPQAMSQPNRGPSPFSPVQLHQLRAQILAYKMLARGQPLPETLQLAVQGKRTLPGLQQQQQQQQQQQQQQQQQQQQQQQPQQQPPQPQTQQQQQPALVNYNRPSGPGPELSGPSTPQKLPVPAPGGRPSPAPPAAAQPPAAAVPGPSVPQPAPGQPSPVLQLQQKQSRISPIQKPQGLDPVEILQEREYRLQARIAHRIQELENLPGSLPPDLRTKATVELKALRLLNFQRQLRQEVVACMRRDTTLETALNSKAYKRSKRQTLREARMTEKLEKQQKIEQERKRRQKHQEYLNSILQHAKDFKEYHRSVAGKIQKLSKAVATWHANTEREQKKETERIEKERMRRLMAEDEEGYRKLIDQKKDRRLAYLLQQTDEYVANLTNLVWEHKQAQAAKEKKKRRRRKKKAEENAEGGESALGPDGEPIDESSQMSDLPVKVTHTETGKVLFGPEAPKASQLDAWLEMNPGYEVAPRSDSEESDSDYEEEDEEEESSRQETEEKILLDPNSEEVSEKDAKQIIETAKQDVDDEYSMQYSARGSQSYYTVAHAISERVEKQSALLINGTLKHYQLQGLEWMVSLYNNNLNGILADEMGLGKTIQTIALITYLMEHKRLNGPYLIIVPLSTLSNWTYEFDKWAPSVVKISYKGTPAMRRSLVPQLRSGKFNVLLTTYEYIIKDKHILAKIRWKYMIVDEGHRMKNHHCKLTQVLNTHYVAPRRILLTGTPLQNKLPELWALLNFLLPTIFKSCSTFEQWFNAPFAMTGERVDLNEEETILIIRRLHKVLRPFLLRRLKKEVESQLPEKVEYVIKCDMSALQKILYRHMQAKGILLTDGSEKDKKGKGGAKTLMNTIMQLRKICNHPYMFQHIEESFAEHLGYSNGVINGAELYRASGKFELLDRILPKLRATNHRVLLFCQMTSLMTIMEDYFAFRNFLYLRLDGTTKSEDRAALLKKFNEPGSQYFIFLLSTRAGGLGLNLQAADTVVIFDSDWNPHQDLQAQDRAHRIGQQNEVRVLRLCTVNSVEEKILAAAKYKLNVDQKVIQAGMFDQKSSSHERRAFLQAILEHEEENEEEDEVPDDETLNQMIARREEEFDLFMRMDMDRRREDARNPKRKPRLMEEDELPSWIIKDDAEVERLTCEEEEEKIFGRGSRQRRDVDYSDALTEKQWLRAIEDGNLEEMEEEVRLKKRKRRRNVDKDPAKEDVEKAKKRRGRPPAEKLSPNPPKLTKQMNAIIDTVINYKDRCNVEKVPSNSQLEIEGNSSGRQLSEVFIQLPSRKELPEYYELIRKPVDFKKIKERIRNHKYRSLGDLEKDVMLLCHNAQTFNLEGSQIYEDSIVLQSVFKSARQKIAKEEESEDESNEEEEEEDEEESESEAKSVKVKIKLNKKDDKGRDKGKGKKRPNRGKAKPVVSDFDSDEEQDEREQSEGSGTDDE

Take `Cc1ccc(C(=O)NCC(=O)Nc2nc(-c3cccc(N4C[C@@H](C)O[C@@H](C)C4)c3)cs2)cc1S(=O)(=O)C(C)C` [Compound 125, N-(2-((4-(3-((cis)-2,6-dimethylmorpholino)phenyl)thiazol-2-yl)amino)-2-oxoethyl)-3-(isopropylsulfonyl)-4-methylbenzamide]: in experiment [1], the “BRM Max % Inhibition” value is reported as above 95% and the IC50 (commonly the midpoint of a concentration-inhibition curve) was below 0.1 µM. Besides, in experiment [2], the IC50 lay within 0.1 to 1 µM and the Emax is above 80%.
As for `CC(C)S(=O)(=O)c1cccc(C(=O)NCC(=O)Nc2nc(-c3cccc(N4CCOCC4)c3)cs2)c1` [Compound 126, 3-isopropylsulfonyl-N-[2-[[4-(3-morpholinophenyl)thiazol-2-yl]amino]-2-oxoethyl]benzamide], in experiment [1], the “BRM Max % Inhibition” value is given as above 80% and the half-maximal inhibitory concentration (IC50) was 0.1 to 1 µM. Besides, in experiment [2], the IC50 was in the range of 1 to 5 µM and the Emax is above 60%.
The corresponding values for `Cc1cc(-c2cccc(-c3csc(NC(=O)CNC(=O)c4cccc(S(=O)(=O)C(C)C)c4)n3)c2)ncn1` [Compound 127, 3-isopropylsulfonyl-N-[2-[[4-[3-(6-methylpyrimidin-4-yl)phenyl]thiazol-2-yl]amino]-2-oxoethyl] benzamide] are above 95%, below 0.1 µM, 0.1 to 1 µM and above 90%.
The corresponding values for `C[C@@H]1CN(c2cccc(-c3csc(NC(=O)CNC(=O)c4ccc5c(c4)S(=O)(=O)CCCC5)n3)c2)C[C@H](C)O1` [Compound 128, N-(2-((4-(3-((cis)-2,6-dimethylmorpholino)phenyl)thiazol-2-yl)amino)-2-oxoethyl)-2,3,4,5-tetrahydrobenzo[b]thiepine-8-carboxamide 1,1-dioxide] are above 95%, below 0.1 µM, below 0.1 µM and above 95%.
For `O=C(CNC(=O)c1ccc2c(c1)S(=O)(=O)CCCC2)Nc1nc(-c2cccc(-c3ccncc3)c2)cs1` [Compound 129, 1,1-dioxo-N-[2-oxo-2-[[4-[3-(4-pyridyl)phenyl]thiazol-2-yl]amino]ethyl]-2,3,4,5-tetrahydro-1benzothiepine-8-carboxamide], in experiment [1], the “BRM Max % Inhibition” value was above 95% and the IC50 was below 0.1 µM. In addition, in experiment [2], the IC50 was below 0.1 µM and the Emax is above 95%.
With `CN1CC=Cc2ccc(C(=O)NCC(=O)Nc3nc(-c4cccc(-c5ccncc5)c4)cs3)cc2S1(=O)=O` [Compound 130, 2-methyl-1,1-dioxo-N-[2-oxo-2-[[4-[3-(4-pyridyl)phenyl]thiazol-2-yl]amino]ethyl]-3H-1,2-benzothiazepine-8-carboxamide], in experiment [1], the “BRM Max % Inhibition” value is reported as above 60% and the IC50 lay within 0.1 to 1 µM. Further, in experiment [2], the IC50 was above 5 µM and the Emax is below 30%.
As for `CN1CCCc2ccc(C(=O)NCC(=O)Nc3nc(-c4cccc(-c5ccncc5)c4)cs3)cc2S1(=O)=O` [Compound 131, 2-methyl-1,1-dioxo-N-[2-oxo-2-[[4-[3-(4-pyridyl)phenyl]thiazol-2-yl]amino]ethyl]-4,5-dihydro-3H-1,2-benzothiazepine-8-carboxamide], in experiment [1], the “BRM Max % Inhibition” value is above 95% and the IC50 is below 0.1 µM. For the same compound, in experiment [2], the IC50 was in the range of 0.1 to 1 µM and the Emax is above 70%.
The corresponding values for `C[C@@H]1CN(c2cccc(-c3csc(NC(=O)CNC(=O)c4cccc([C@@]5(O)CCOC5)c4)n3)n2)C[C@H](C)O1` [Compound 134, N-[2-[[4-[6-[(cis)-2,6-dimethylmorpholin-4-yl]-2-pyridyl]thiazol-2-yl]amino]-2-oxo-ethyl]-3-[(3S)-3-hydroxytetrahydrofuran-3-yl]benzamide] are above 80%, 0.1 to 1 µM, 1 to 5 µM and above 60%.
In the same order, the values of `C[C@@H]1CN(c2cccc(-c3csc(NC(=O)CNC(=O)c4ccc5c(c4)C(C)(O)CCO5)n3)c2)C[C@H](C)O1` (stereo partly drawn) [Compound 136, N-[2-[[4-[3-[(cis)-2,6-dimethylmorpholin-4-yl]phenyl]thiazol-2-yl]amino]-2-oxo-ethyl]-4-hydroxy-4-methylchromane-6-carboxamide] are above 90%, 0.1 to 1 µM, 1 to 5 µM and above 70%.
In the same order, the values of `C[C@@H]1CN(c2cccc(-c3csc(NC(=O)CNC(=O)c4cccc5c4OCC[C@@]5(C)CO)n3)c2)C[C@H](C)O1` [Compound 138, (R)-N-(2-((4-(3-((cis)-2,6-dimethylmorpholino)phenyl)thiazol-2-yl)amino)-2-oxoethyl)-4-(hydroxymethyl)-4-methylchroman-8-carboxamide] are above 90%, 0.1 to 1 µM, above 5 µM and above 50%.
As for `C[C@@H]1CN(c2cccc(-c3csc(NC(=O)CNC(=O)c4ccnc(C(C)(C)CO)c4)n3)c2)C[C@H](C)O1` [Compound 139, N-[2-[[4-[3-[(cis)-2,6-dimethylmorpholin-4-yl]phenyl]thiazol-2-yl]amino]-2-oxo-ethyl]-2-(2-hydroxy-1,1-dimethyl-ethyl)pyridine-4-carboxamide], in experiment [1], the “BRM Max % Inhibition” value is given as above 95% and the IC50 is 0.1 to 1 µM. In experiment [2], the IC50 was in the range of 1 to 5 µM and the Emax is above 70%.
In the same order, the values of `C[C@@H]1CN(c2cccc(-c3csc(NC(=O)CNC(=O)c4ccc5c(c4)[C@@H]([C@H](C)O)CC5)n3)n2)C[C@H](C)O1` [Compound 140, (3S)-N-[2-[[4-[6-[(cis)-2,6-dimethylmorpholin-4-yl]-2-pyridyl]thiazol-2-yl]amino]-2-oxo-ethyl]-3-[(1S)-1-hydroxyethyl]indane-5-carboxamide] are above 95%, 0.1 to 1 µM, above 5 µM and above 50%.
For `C[C@@H]1CN(c2cccc(-c3csc(NC(=O)CNC(=O)c4ccc5c(c4)[C@H]([C@H](C)O)CC5)n3)n2)C[C@H](C)O1` [Compound 141, (3R)-N-[2-[[4-[6-[(cis)-2,6-dimethylmorpholin-4-yl]-2-pyridyl]thiazol-2-yl]amino]-2-oxo-ethyl]-3-[(1S)-1-hydroxyethyl]indane-5-carboxamide], in experiment [1], the “BRM Max % Inhibition” value is above 80% and the IC50 lay within 0.1 to 1 µM. Moreover, in experiment [2], the IC50 was above 5 µM and the Emax is above 60%.
As for `C[C@@H]1CN(c2cccc(-c3csc(NC(=O)CNC(=O)c4ccc5c(c4)[C@@H]([C@@H](C)O)CC5)n3)n2)C[C@H](C)O1` [Compound 142, (3S)-N-[2-[[4-[6-[(cis)-2,6-dimethylmorpholin-4-yl]-2-pyridyl]thiazol-2-yl]amino]-2-oxo-ethyl]-3-[(1R)-1-hydroxyethyl]indane-5-carboxamide], in experiment [1], the “BRM Max % Inhibition” value was above 95% and the IC50 is below 0.1 µM. For the same compound, in experiment [2], the IC50 was 0.1 to 1 µM and the Emax is above 80%.
